The structures appear in SMILES notation. Like-named read-outs stand apart in the source and are kept apart here.

One assay deals with T1, HIV protease (Human immunodeficiency virus type 1 group M subtype B, UniProt P04585).
T1 construct: fluorometric method for measurement of HIV-protease (HIV-PR) activity utilizing a synthetic peptide substrate
The experiment in a line: biochemical. The protocol: Compositions to be subjected to enzyme assay are lyophilited and diluted in DMSO to 100-1000 μM. Compositions having apparent IC50 <1 μm are diluted to 100 μM.
The assay is a fluorometric method for measurement of HIV-protease (HIV-PR) activity utilizing a synthetic peptide substrate for HIV-PR based on that described by Matayoshi, E.D.; Wang, G.T.; Krafft, G.A.; and Erickson, J.W.; Science, 1990, 247, 954-958; and Wang, G.T.; Huffker, J.A.; Matayoshi, E.; and Krafft, G.A.; Tetrahedron Lett., 1990, 165 6493-6496.
Buffer: 0.1M sodium acetate
1.0 mM ethylenediaminetetraacetic acid (EDTA)
1.0 mM dithiothreitol (DTT)
10% dimethyl sulfoxide (DMSO)
1 mg/mL bovine serum albumin (BSA) adjusted to pH 4.7
1. Prepare a solution of 2 μM HIV Protease Substrate 1 in the Assay Buffer.
2. Dispense the substrate solution into UV-pass fluorescence cuvettes (1 cm pathlength).
3. Set the excitation and emission monochromators of the spectrofluorimeter to 340 nm and 490 nm, respectively. To obtain the same kinetic constants as reported, cuvettes should be held at 37° C. throughout the assay.
4. Begin each assay by adding a small amount (<3% of the final volume) of HIV-PR-containing solution diluted tin the Assay Buffer.
5. Measure the initial rate of cleavage of fluorogenic substrate by monitoring the increase in fluorescence signal at 490 nm for 5-8 min at 37° C.
(§1) The apparent IC50 and IC50 values reported below in Table 25 were determined using the assays of Example 34 and 35, respectively. The values are indicated as follows: +=10-50 μM, ++2-10 μM, and +++<2 μM.

For a further assay, the system named is HIV IIIB. The experiment in a line: XTT cell culture assay, cells infected with HIV IIIB. Format: cell-based. The following applies: Human immunodeficiency virus 1, IIIB, read-out: Cell Culture IC50. The procedure:
The method of Weislow, O.S.; Kiser, R.; Fine, D.L.; Bader, J.; Shoemaker, R.H.; and Boyd, M.R.; I. Nat. Cancer Institute, 1989, 81(8) 577-586 was applied with the following minor modifications:. Infection of cells with HIV IIIB was performed without polybrene. Cells were distributed to Microtiter wells containing the compound of the invention 4 h after infection with HIV IIIB. 2×XTT was added at 5-6 days post infection. 20 μl 2% Triton X-100 was added 1 hour after XTT addition.
1. Add 4 ml of XTT (5 mg/ml) to 8 ml of Deficient RPMI medium (no phenol red, no serum). Mix briefly at 45° C. to dissolve XTT.
2. Add 800 μl of PMS (0.2 mg/ml) to XTT/RPMI mixture.
3. Remove […] of cell free media from each well of a 96 well plate and replace with 100 μl of the XTT/PMS mixture.
4. Incubate at 37° C. for 1.5-2 h.
5. Read absorbance at 450 nm. Absorbance values are directly proportional to cell viability.
as §1

[1] abbreviates: HIV protease, fluorogenic peptide substrate, pH 4.7, 37° C., read-out: Apparent Enzyme IC50.
The mark [2] stands for this setting: XTT assay, HIV IIIB infected cells, XTT 5-6 days post infection.

The term IC50 denotes the concentration needed to halve the response being measured. For the molecule `[O-][S+]1CC(OCc2ccccc2)C(O)C(O)C(OCc2ccccc2)C1Cc1ccccc1` (centres unmarked) [107/3], the IC50 on HIV protease (setting [1]) fell in the range of 2000 to 10000 nM.
Take `[O-][S+]1CC(OCc2ccccc2)C(O)C(O)C(OCc2ccccc2)C1Cc1ccccc1` (centres unmarked) [107/4]: the IC50 was in the range of 2000 to 10000 nM on HIV protease (setting [1]) and 10000 to 50000 nM with HIV IIIB (setting [2]).
As to `N#Cc1ccccc1O[C@@H]1[C@H](O)[C@@H](O)[C@@H](Oc2ccccc2C#N)C[S@+]([O-])[C@@H]1Cc1ccccc1` [107/8], at HIV protease (setting [1]), the IC50 was 10000 to 50000 nM.
Still for that read-out and setting: the same measure for `N#Cc1ccc(O[C@@H]2[C@H](O)[C@@H](O)[C@@H](Oc3ccc(C#N)cc3)C[S@@+]([O-])[C@@H]2Cc2ccccc2)cc1` [107/13]: 10000 to 50000 nM.
Take `[O-][S+]1C(Cc2ccccc2)C(OCc2ccccc2)C(O)C(O)C(OCc2ccccc2)C1Cc1ccccc1` (centres unmarked) [108/17]: the IC50 in the assay on HIV IIIB (setting [2]) is 2000 to 10000 nM.
On to `O=[N+]([O-])c1cccc(CO[C@@H]2[C@H](O)[C@@H](O)C(NCc3ccccc3)C(Cc3ccccc3)S(=O)(=O)[C@@H]2Cc2ccccc2)c1` (some centres unmarked) [108/31], for which the IC50 is less than 2000 nM on HIV protease (setting [1]) and 2000 to 10000 nM in the assay with HIV IIIB (setting [2]).
Consider `O=S1(=O)C(Cc2ccccc2)C(NCc2ccccc2)[C@H](O)[C@@H](O)[C@@H](OCc2ccccc2)[C@H]1Cc1ccccc1` (some centres unmarked) [108/34], for which the IC50 at HIV protease (setting [1]) was less than 2000 nM; in the assay with HIV IIIB (setting [2]) it was 2000 to 10000 nM.
The like results for `O=S1(=O)C(Cc2ccccc2)C(NCCCc2ccccc2)[C@H](O)[C@@H](O)[C@@H](OCc2ccccc2)[C@H]1Cc1ccccc1` (some centres unmarked) [108/35] were, in that order, less than 2000 nM and 2000 to 10000 nM.
For `O=S1(=O)[C@H](Cc2ccccc2)[C@H](OCc2ccccn2)[C@H](O)[C@@H](O)[C@@H](OCc2ccccn2)[C@H]1Cc1ccccc1` [120/8], the IC50 is less than 2000 nM on HIV protease (setting [1]) and 2000 to 10000 nM in the assay with HIV IIIB (setting [2]).
The like results for `O=S1(=O)[C@H](Cc2ccccc2)[C@H](OCc2ccccn2)[C@H](O)[C@@H](O)[C@@H](OCc2cccc[n+]2[O-])[C@H]1Cc1ccccc1` [120/9] were, in that order, less than 2000 nM and 2000 to 10000 nM.
With `Cc1nc(COC2C(O)C(O)C(OCc3csc(C)n3)C(Cc3ccccc3)S(=O)(=O)C2Cc2ccccc2)cs1` (centres unmarked) [120/22], in the assay with HIV IIIB (setting [2]), the half-maximal inhibitory concentration (IC50) was 10000 to 50000 nM.
The same measure, in the same setting: the same measure for `O=S1(=O)C(Cc2ccccc2)C(OCc2cncs2)C(O)C(O)C(OCc2cncs2)C1Cc1ccccc1` (centres unmarked) [120/25]: less than 2000 nM; for `Cc1cccc(COC2C(O)C(O)C(OCc3cccc(C)c3)C(Cc3ccccc3)S(=O)(=O)C2Cc2ccccc2)c1` (centres unmarked) [120/31]: less than 2000 nM; for `COc1cccc(COC2C(O)C(O)C(OCc3cccc(OC)c3)C(Cc3ccccc3)S(=O)(=O)C2Cc2ccccc2)c1` (centres unmarked) [120/34]: less than 2000 nM.
In the case of `O=[N+]([O-])c1cccc(COC2C(O)C(O)C(OCc3cccc([N+](=O)[O-])c3)C(Cc3ccccc3)[S+]([O-])C2Cc2ccccc2)c1` (centres unmarked) [120/44], the IC50 with HIV IIIB was less than 2000 nM.
Regarding `O=[N+]([O-])c1cccc(COC2C(O)C(O)C(OCc3cccc([N+](=O)[O-])c3)C(Cc3ccccc3)S(=O)(=O)C2Cc2ccccc2)c1` (centres unmarked) [120/45], the IC50 in the assay on HIV IIIB was less than 2000 nM.
`Nc1cccc(COC2C(O)C(O)C(OCc3cccc(N)c3)C(Cc3ccccc3)S(=O)(=O)C2Cc2ccccc2)c1` (centres unmarked) [120/46]: in the assay on HIV IIIB (setting [2]), the half-maximal inhibitory concentration (IC50) is less than 2000 nM.
For the molecule `CN(C)c1nc(CO[C@@H]2[C@H](O)[C@@H](O)[C@@H](OCc3csc(N(C)C)n3)[C@@H](Cc3ccccc3)S(=O)(=O)[C@@H]2Cc2ccccc2)cs1` [125/14], on HIV protease (setting [1]), the IC50 was less than 2000 nM.
Regarding `O=[N+]([O-])c1ccc(OC2C(O)C(O)C(Oc3ccc([N+](=O)[O-])cc3)C(Cc3ccccc3)S(=O)(=O)C2Cc2ccccc2)cc1` (centres unmarked) [125/17], the IC50 at HIV protease and in the assay on HIV IIIB was less than 2000 nM in each case.
For `Cc1ccc(OC2C(O)C(O)C(Oc3ccc(C)cn3)C(Cc3ccccc3)S(=O)(=O)C2Cc2ccccc2)nc1` (centres unmarked) [125/21], on HIV protease (setting [1]), the concentration for half-maximal inhibition (IC50) was in the range of 2000 to 10000 nM.
The molecule `O=[N+]([O-])c1ccc(OC2C(O)C(O)C(Oc3ccc([N+](=O)[O-])c(C(F)(F)F)c3)C(Cc3ccccc3)S(=O)(=O)C2Cc2ccccc2)cc1C(F)(F)F` (centres unmarked) [125/27] displayed a half-inhibitory concentration (IC50) at HIV protease of less than 2000 nM.
Regarding `Nc1ccc(OC2C(O)C(O)C(Oc3ccc(N)c(C(F)(F)F)c3)C(Cc3ccccc3)S(=O)(=O)C2Cc2ccccc2)cc1C(F)(F)F` (centres unmarked) [125/28], the IC50 at HIV protease (setting [1]) and with HIV IIIB (setting [2]) was less than 2000 nM throughout.
In the case of `Cc1cccc(O[C@@H]2[C@H](O)[C@@H](O)[C@@H](Oc3cccc(C)n3)[C@@H](Cc3ccccc3)S(=O)(=O)[C@@H]2Cc2ccccc2)n1` [128/31], the IC50 on HIV protease (setting [1]) was 10000 to 50000 nM.
The same measure, in the same setting: the same measure for `Cc1ccnc(O[C@@H]2[C@H](O)[C@@H](O)[C@@H](Oc3cc(C)ccn3)[C@@H](Cc3ccccc3)S(=O)(=O)[C@@H]2Cc2ccccc2)c1` [128/35]: 10000 to 50000 nM.

Source of the values: patent publication US5811450A, “Thiepane compounds” (Gilead Sciences, Inc., priority 1996, dated 1998).
